According to patent US20250179013A1, “INHIBITORS OF RNA HELICASE DHX9 AND USES THEREOF” (ACCENT THERAPEUTICS, INC., priority 2022, published 2025):
Like-named read-outs stand apart in the source and are kept apart here.

Assays:
[1] = biological target: T1, Human recombinant DHX9 protein (Homo sapiens, UniProt Q08211); experiment: DHX9 ATPase assay (ADP-Glo biochemical assay); settings: for DHX9 Biochemical Max Inhibition: maximum inhibition in ATPase assay, 10 μM Aurintricarboxylic acid = 100%
T1 construct: purchased Viva
T1 sequence (Q08211 whole entry): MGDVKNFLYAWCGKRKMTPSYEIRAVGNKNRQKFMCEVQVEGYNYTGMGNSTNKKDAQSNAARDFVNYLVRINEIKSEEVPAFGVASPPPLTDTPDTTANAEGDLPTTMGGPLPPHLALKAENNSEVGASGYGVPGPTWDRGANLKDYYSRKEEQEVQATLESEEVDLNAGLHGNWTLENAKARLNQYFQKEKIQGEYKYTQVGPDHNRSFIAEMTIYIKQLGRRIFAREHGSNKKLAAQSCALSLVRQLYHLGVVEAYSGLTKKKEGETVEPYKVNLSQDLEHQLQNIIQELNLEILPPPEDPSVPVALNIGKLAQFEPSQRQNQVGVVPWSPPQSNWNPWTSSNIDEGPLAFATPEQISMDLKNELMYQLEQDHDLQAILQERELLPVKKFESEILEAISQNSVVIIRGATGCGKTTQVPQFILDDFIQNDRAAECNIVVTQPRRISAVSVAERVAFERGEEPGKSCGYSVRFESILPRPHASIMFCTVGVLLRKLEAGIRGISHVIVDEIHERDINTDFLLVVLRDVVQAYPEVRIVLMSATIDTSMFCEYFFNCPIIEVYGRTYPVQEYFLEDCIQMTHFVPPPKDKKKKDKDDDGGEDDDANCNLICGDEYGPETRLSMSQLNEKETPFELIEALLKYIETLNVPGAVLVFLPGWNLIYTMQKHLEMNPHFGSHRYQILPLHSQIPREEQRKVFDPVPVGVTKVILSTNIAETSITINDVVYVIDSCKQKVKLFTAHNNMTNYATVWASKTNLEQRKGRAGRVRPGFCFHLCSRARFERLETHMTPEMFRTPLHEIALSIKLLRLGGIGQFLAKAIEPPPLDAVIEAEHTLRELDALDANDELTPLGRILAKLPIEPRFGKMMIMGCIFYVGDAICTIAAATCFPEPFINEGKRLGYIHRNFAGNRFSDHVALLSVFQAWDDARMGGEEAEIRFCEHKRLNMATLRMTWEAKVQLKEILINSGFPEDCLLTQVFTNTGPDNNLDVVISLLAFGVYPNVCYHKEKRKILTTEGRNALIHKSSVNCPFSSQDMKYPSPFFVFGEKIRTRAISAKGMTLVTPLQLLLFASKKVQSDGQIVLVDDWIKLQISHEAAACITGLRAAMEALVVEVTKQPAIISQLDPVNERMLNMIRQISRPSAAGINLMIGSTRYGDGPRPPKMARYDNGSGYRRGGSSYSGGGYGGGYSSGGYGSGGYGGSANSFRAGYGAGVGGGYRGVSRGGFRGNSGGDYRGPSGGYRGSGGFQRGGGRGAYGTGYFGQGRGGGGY

[2] = system: DHX9 (circBRIP1 mRNA in HCT116 cells); experiment: DHX9 circBRIP1 Cellular Target Engagement SYBR Green Assay; type: cell-based; settings: 72 hours
[3] = system: DHX9 (circBRIP1 mRNA in HCT116 cells); experiment: DHX9 circBRIP1 Cellular Target Engagement TaqMan Multiplex Assay; type: cell-based; settings: Homo sapiens, HCT-116, TaqMan Multiplex Assay (footnote *), circBRIP1 qPCR, 72 hours
LS411N cells = experiment: DHX9 Cellular Proliferation Assay (CellTiter-Glo), LS411N; type: cell-based; settings: Homo sapiens, LS-411N, 120 hours, read-out: LS411N (CRC-MSI-H) Antiproliferative IC50
NCI-H747 cells = experiment: DHX9 Cellular Proliferation Assay (CellTiter-Glo), NCI-H747; type: cell-based; settings: Homo sapiens, 120 hours, read-out: H747 (CRC-MSS) Antiproliferative IC50
[4] = read-out: DHX9 Biochemical Inflection Point
[5] = Homo sapiens, HCT-116, circBRIP1 qPCR

## Cn1nc(C(=O)Nc2cccc(NS(C)(=O)=O)c2)cc1-c1ccc(O)cc1 [Example 79]
[1]
  DHX9 Biochemical Max Inhibition: 71.2%
[1]; [4]
  IC50: 467 nM
[2]; [5]
  EC50: > 30 µM

## CS(=O)(=O)Nc1cccc(NC(=O)c2cc(-c3ccccn3)n[nH]2)c1 [Example 81]
[1]
  DHX9 Biochemical Max Inhibition: 68.3%
[1]; [4]
  IC50: 1070 nM
[2]; [5]
  EC50: > 30 µM

## Cc1cccnc1-c1csc(C(=O)Nc2cccc(NS(C)(=O)=O)c2)c1 [Example 83]
[1]
  DHX9 Biochemical Max Inhibition: 73.1%
[1]; [4]
  IC50: 17.3 nM
[2]; [5]
  EC50: 0.917 µM

## CS(=O)(=O)Nc1cccc(NC(=O)c2cc(-c3ncccn3)cs2)c1 [Example 84]
[1]
  DHX9 Biochemical Max Inhibition: 71.4%
[1]; [4]
  IC50: 12.5 nM
[2]; [5]
  EC50: 4.84 µM

## CS(=O)(=O)Nc1cccc(NC(=O)c2cc(-c3cccc(N)n3)cs2)c1 [Example 85]
[1]
  DHX9 Biochemical Max Inhibition: 70.7%
[1]; [4]
  IC50: 19.5 nM
[2]; [5]
  EC50: 1.39 µM

## CS(=O)(=O)Nc1cccc(NC(=O)c2cc(-c3cc(N)ccn3)cs2)c1 [Example 86]
[1]
  DHX9 Biochemical Max Inhibition: 71.1%
[1]; [4]
  IC50: 45.3 nM
[2]; [5]
  EC50: 19.5 µM

## CS(=O)(=O)Nc1cccc(NC(=O)c2cc(-c3cc(C(=O)O)ccn3)cs2)c1 [Example 87]
[1]
  DHX9 Biochemical Max Inhibition: 77.2%
[1]; [4]
  IC50: 22.6 nM
[2]; [5]
  EC50: ≥ 30 µM

## CS(=O)(=O)Nc1cccc(NC(=O)c2cc(-c3ccccc3N)cs2)c1 [Example 88]
[1]
  DHX9 Biochemical Max Inhibition: 68.2%
[1]; [4]
  IC50: 65.4 nM
[2]; [5]
  EC50: 10.5 µM

## CS(=O)(=O)Nc1cccc(NC(=O)c2cc(-c3ncccc3N)cs2)c1 [Example 89]
[1]
  DHX9 Biochemical Max Inhibition: 76.4%
[1]; [4]
  IC50: 9.7 nM
[2]; [5]
  EC50: 1.03 µM

## CS(=O)(=O)Nc1cccc(NC(=O)c2nc(-c3ccccn3)c[nH]2)c1 [Example 90]
[1]
  DHX9 Biochemical Max Inhibition: 61.2%
[1]; [4]
  IC50: 19000 nM
[2]; [5]
  EC50: > 30 µM

## CS(=O)(=O)Nc1cccc(NC(=O)c2cc(-c3ccc(N4CCNCC4)cn3)cs2)c1 [Example 91, N-(3-(methylsulfonamido)phenyl)-4-(5-(piperazin-1-yl)pyridin-2-yl)thiophene-2-carboxamide]
[1]
  DHX9 Biochemical Max Inhibition: 74.6%
[1]; [4]
  IC50: 7.2 nM
[2]; [5]
  EC50: 7.63 µM

## CS(=O)(=O)Nc1cccc(NC(=O)c2cc(-c3cc(C(N)=O)ccn3)cs2)c1 [Example 92]
[1]
  DHX9 Biochemical Max Inhibition: 75.5%
[1]; [4]
  IC50: 55.4 nM
[2]; [5]
  EC50: > 30 µM

## CC(=O)Nc1ccccc1-c1csc(C(=O)Nc2cccc(NS(C)(=O)=O)c2)c1 [Example 93, 4-(2-acetamidophenyl)-N-(3-(methylsulfonamido)phenyl)thiophene-2-carboxamide]
[1]
  DHX9 Biochemical Max Inhibition: 74%
[1]; [4]
  IC50: 39.9 nM
[2]; [5]
  EC50: 11.5 µM

## CC(=O)Nc1cccnc1-c1csc(C(=O)Nc2cccc(NS(C)(=O)=O)c2)c1 [Example 94]
[1]
  DHX9 Biochemical Max Inhibition: 71.2%
[1]; [4]
  IC50: 125 nM
[2]; [5]
  EC50: > 30 µM

## CC(=O)N1CCN(c2ccc(-c3csc(C(=O)Nc4cccc(NS(C)(=O)=O)c4)c3)nc2)CC1 [Example 95]
[1]
  DHX9 Biochemical Max Inhibition: 73.1%
[1]; [4]
  IC50: 7.6 nM
[2]; [5]
  EC50: > 30 µM

## CCS(=O)(=O)Nc1cccc(NC(=O)c2cc(-c3ccccc3)cs2)c1 [Example 96, N-(3-(ethylsulfonamido)phenyl)-4-phenylthiophene-2-carboxamide]
[1]
  DHX9 Biochemical Max Inhibition: 59.6%
[1]; [4]
  IC50: 89.9 nM
[2]; [5]
  EC50: 22.2 µM

## CCS(=O)(=O)Nc1cccc(NC(=O)c2cc(-c3ccccn3)cs2)c1 [Example 97]
[1]
  DHX9 Biochemical Max Inhibition: 70%
[1]; [4]
  IC50: 24.7 nM
[2]; [5]
  EC50: 4.32 µM

## CS(=O)(=O)Nc1cccc(NC(=O)c2cc(-c3ccccc3)c(C(F)(F)F)s2)c1 [Example 99, N-(3-(methylsulfonamido)phenyl)-4-phenyl-5-(trifluoromethyl)thiophene-2-carboxamide]
[1]
  DHX9 Biochemical Max Inhibition: 35.8%
[1]; [4]
  IC50: 716 nM
[2]; [5]
  EC50: > 30 µM

## CS(=O)(=O)Nc1cccc(NC(=O)c2cc(-c3ccccc3)c(C#N)s2)c1 [Example 100, 5-cyano-N-(3-(methylsulfonamido)phenyl)-4-phenylthiophene-2-carboxamide]
[1]
  DHX9 Biochemical Max Inhibition: 65.8%
[1]; [4]
  IC50: 333 nM
[2]; [5]
  EC50: 28.5 µM

## CS(=O)(=O)Nc1cccc(NC(=O)c2cc(C(=O)Nc3ccccc3)cs2)c1 [Example 102, N2-(3-(methylsulfonamido)phenyl)-N4-phenylthiophene-2,4-dicarboxamide]
[1]
  IC50: 159 nM
  DHX9 Biochemical Max Inhibition: 72.5%
[2]; [5]
  EC50: 18.9 µM

## CNC(=O)c1sc(C(=O)Nc2cccc(NS(C)(=O)=O)c2)cc1-c1ccccc1 [Example 152]
[1]
  DHX9 Biochemical Max Inhibition: 69.7%
[1]; [4]
  IC50: 123 nM
[2]; [5]
  EC50: 16.6 µM

## CS(=O)(=O)Nc1cccc(NC(=O)c2cc(-c3ccccc3)c(CO)s2)c1 [Example 153, 5-(hydroxymethyl)-N-(3-(methylsulfonamido)phenyl)-4-phenylthiophene-2-carboxamide]
[1]
  DHX9 Biochemical Max Inhibition: 77.9%
[1]; [4]
  IC50: 43.2 nM
[2]; [5]
  EC50: 5.91 µM

## CS(=N)(=O)Nc1cccc(NC(=O)c2cc(-c3ccccc3)cs2)c1 (centres unmarked) [Example 157, N-(3-(methylsulfonoamidimidamido)phenyl)-4-phenylthiophene-2-carboxamide]
[1]; inflection point (IP) of four-parameter fit, reported instead of IC50, ATPase, dsRNA substrate, 1 h room temperature, read-out: DHX9 Biochemical Inflection Point
  IC50: 205 nM
[1]
  DHX9 Biochemical Max Inhibition: 68.6%
[2]; circBRIP1 qPCR
  EC50: > 30 µM

## CS(=O)(=O)Nc1cc(C=O)cc(NC(=O)c2cc(-c3ccccc3)cs2)c1 [Example 159, N-(3-formyl-5-(methylsulfonamido)phenyl)-4-phenylthiophene-2-carboxamide]
[1]
  DHX9 Biochemical Max Inhibition: 50.7%
[1]; [4]
  IC50: 690 nM
[2]; [5]
  EC50: > 10 µM

## Cn1cc(C(=O)Nc2cccc(NS(C)(=O)=O)c2)cc1-c1ccc(N2CC(F)(F)C2)cn1 [Example 160, 5-[5-(3,3-difluoroazetidin-1-yl)pyridin-2-yl]-N-(3-methanesulfonamidophenyl)-1-methylpyrrole-3-carboxamide]
[1]
  DHX9 Biochemical Max Inhibition: 89.6%
[1]; [4]
  IC50: 28.4 nM
[3]
  EC50: 1410 nM
LS411N cells
  IC50: 9.45 µM
NCI-H747 cells
  IC50: > 10 µM
